Source: ChEMBL document CHEMBL3393057, “Synthesis and transmembrane anion/cation symport activity of a rigid bis(choloyl) conjugate functionalized with guanidino groups” (Bioorg Med Chem Lett, 2015)

Tests used:
[1] = Ionophoric activity across egg yolk L-alpha-phosphatidylcholine-based liposomal membrane vesicles (unknown origin) assessed as release of chloride ion at 5 mol% by electrode technique in presence of 500 mM RbCl; assay type: ADME; details: artificial membrane
[2] = Ionophoric activity across egg yolk L-alpha-phosphatidylcholine-based liposomal membrane vesicles (unknown origin) assessed as induction of pH discharge at internal pH 7 and external aqueous phase pH 8 at 3 mol% by pyranine dye-based method in presence of NaBr; details: artificial membrane
[3] = Ionophoric activity across egg yolk L-alpha-phosphatidylcholine-based liposomal membrane vesicles (unknown origin) assessed as release of chloride ion after 300 seconds by electrode technique in presence of sodium nitrate in external solution; assay type: ADME; details: artificial membrane, 5 min
[4] = Ionophoric activity across egg yolk L-alpha-phosphatidylcholine-based liposomal membrane vesicles (unknown origin) assessed as release of chloride ion at 5 mol% by electrode technique in presence of 500 mM KCl; assay type: ADME; details: artificial membrane
[5] = Ionophoric activity across egg yolk L-alpha-phosphatidylcholine-based liposomal membrane vesicles (unknown origin) assessed as release of chloride ion at 5 mol% by electrode technique in presence of 500 mM CsCl; assay type: ADME; details: artificial membrane
[6] = Ionophoric activity across egg yolk L-alpha-phosphatidylcholine-based liposomal membrane vesicles (unknown origin) assessed as release of chloride ion at 5 mol% by electrode technique in presence of 500 mM NaCl; assay type: ADME; details: artificial membrane
[7] = Ionophoric activity across egg yolk L-alpha-phosphatidylcholine-based liposomal membrane vesicles (unknown origin) assessed as induction of pH discharge at internal pH 7 and external aqueous phase pH 8 at 3 mol% by pyranine dye-based method in presence of NaNO3; details: artificial membrane
[8] = Ionophoric activity across egg yolk L-alpha-phosphatidylcholine-based liposomal membrane vesicles (unknown origin) assessed as release of chloride ion at 5 mol% by electrode technique in presence of 500 mM LiCl; assay type: ADME; details: artificial membrane
[9] = Ionophoric activity across egg yolk L-alpha-phosphatidylcholine-based liposomal membrane vesicles (unknown origin) assessed as induction of pH discharge at internal pH 7 and external aqueous phase pH 8 at 3 mol% by pyranine dye-based method in presence of NaI; details: artificial membrane
[10] = Ionophoric activity across egg yolk L-alpha-phosphatidylcholine-based liposomal membrane vesicles (unknown origin) assessed as release of chloride ion after 300 seconds by electrode technique in presence of sodium sulfate in external solution; assay type: ADME; details: artificial membrane, 5 min
[11] = Ionophoric activity across egg yolk L-alpha-phosphatidylcholine-based liposomal membrane vesicles (unknown origin) assessed as induction of pH discharge at internal pH 7 and external aqueous phase pH 8 at 3 mol% by pyranine dye-based method in presence of NaCl; details: artificial membrane

Question: With `C[C@H](CCC(=O)NC(CCCNC(=N)N)C(=O)NCc1ccc(CNC(=O)C(CCCNC(=N)N)NC(=O)CC[C@@H](C)[C@@H]2CC[C@@H]3[C@@H]4[C@@H](C[C@@H](O)[C@]32C)[C@]2(C)CC[C@H](O)C[C@@H]2C[C@@H]4O)cc1)[C@H]1CC[C@H]2[C@@H]3[C@H](O)C[C@@H]4C[C@H](O)CC[C@]4(C)[C@H]3C[C@H](O)[C@]12C` (stereo partly specified) as the compound, how does the Activity [1] read?
Answer: Active

Question: And the Activity [2]?
Answer: Active

Question: What about the Activity [3] of the same compound?
Answer: Dose-dependent effect

Question: And the Activity [4]?
Answer: Active

Question: And the Activity [5]?
Answer: Active

Question: And the Activity [6]?
Answer: Active

Question: And the Activity [7]?
Answer: Active

Question: And the Activity [8]?
Answer: Active

Question: And the Activity [9]?
Answer: Active

Question: And the Activity [10]?
Answer: Active

Question: And the Activity [11]?
Answer: Active
